Biological target: T1, EntE (Escherichia coli, UniProt P10378)
T1 sequence (P10378 1-536): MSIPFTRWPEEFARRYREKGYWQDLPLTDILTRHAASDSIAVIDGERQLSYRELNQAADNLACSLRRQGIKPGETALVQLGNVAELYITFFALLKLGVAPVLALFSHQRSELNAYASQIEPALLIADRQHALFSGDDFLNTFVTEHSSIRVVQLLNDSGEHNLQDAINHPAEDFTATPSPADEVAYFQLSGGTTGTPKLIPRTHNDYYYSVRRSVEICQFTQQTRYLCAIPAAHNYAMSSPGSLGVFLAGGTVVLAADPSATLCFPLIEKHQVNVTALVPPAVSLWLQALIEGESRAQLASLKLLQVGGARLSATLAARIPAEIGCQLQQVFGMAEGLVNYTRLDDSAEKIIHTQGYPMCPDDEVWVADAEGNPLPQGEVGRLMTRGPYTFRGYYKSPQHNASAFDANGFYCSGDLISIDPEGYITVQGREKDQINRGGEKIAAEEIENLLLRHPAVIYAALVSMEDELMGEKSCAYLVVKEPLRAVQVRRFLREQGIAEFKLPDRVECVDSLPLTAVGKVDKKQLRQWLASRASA
Test: enzyme inhibition kinetics versus ATP
Type: biochemical

Nc1ncnc2c1ncn2[C@@H]1O[C@H](COP(=O)(O)OP(=O)(O)OP(=O)(O)OP(=O)(O)OC[C@H]2O[C@@H](n3cnc4c(N)ncnc43)[C@H](O)[C@@H]2O)[C@@H](O)[C@H]1O [Ap4A, P^1, P^3-diadenosine-5′-tetraphosphate]
Ki: 1200 ± 100 nM

Reference: publication PMC2783875 (Biochemistry, 2009)
